Converted amounts (≈) assume the structure as drawn.
Columns and labels:
Test in all cases: ≥ marks a high value that may be exact or a test limit, other limits are often not marked, values filed in µg/mL are converted to µM
[1] = test system: Pseudomonas aeruginosa ATCC 27853
[2] = test system: Klebsiella pneumoniae ATCC 700603
[3] = test system: Proteus mirabilis ATCC 25933
[4] = test system: Acinetobacter baumannii
[5] = test system: Staphylococcus aureus ATCC 25923
[6] = test system: Stenotrophomonas maltophilia
[7] = test system: Staphylococcus epidermidis RP62A/1
[8] = test system: Staphylococcus epidermidis RP62A
[9] = test system: Klebsiella pneumoniae
[10] = test system: Escherichia coli ATCC 25726
[11] = test system: Staphylococcus aureus ATCC 29213
[12] = test system: Candida albicans ATCC 90028
[13] = test system: Staphylococcus aureus
[14] = test system: Staphylococcus aureus CIP 53.156
[15] = test system: Staphylococcus xylosus ATCC 35033
[16] = test system: Staphylococcus xylosus
[17] = test system: Salmonella enterica subsp. enterica serovar Enteritidis
[18] = test system: Enterobacter cloacae ATCC 11775
[19] = test system: Staphylococcus haemolyticus
[20] = test system: Vibrio cholerae
[21] = test system: Candida albicans
[22] = test system: Bacillus megaterium ATCC 9885
[23] = test system: Neisseria meningitidis
[24] = test system: Escherichia coli 363 ATCC 11775
[25] = test system: Salmonella typhimurium
[26] = test system: Pseudomonas aeruginosa
[27] = test system: Saccharomyces cerevisiae
[28] = test system: Proteus vulgaris NCTC 4635
[29] = test system: Staphylococcus aureus ATCC 6538
[30] = test system: Bacillus subtilis ATCC 9372
[31] = test system: Escherichia coli ATCC 8739
[32] = test system: Pseudomonas aeruginosa ATCC 9027

`CC[C@H](C)[C@H](N)C(=O)N[C@@H](CCCCN)C(=O)N[C@@H](CC(C)C)C(=O)N[C@@H](CO)C(=O)N1CCC[C@H]1C(=O)N[C@@H](CCC(=O)O)C(=O)N[C@H](C(=O)N[C@@H](CCCCN)C(=O)N[C@@H](CC(=O)O)C(=O)N[C@@H](CC(N)=O)C(=O)N[C@@H](CC(C)C)C(=O)N[C@@H](CCCCN)C(=O)N[C@@H](CCCCN)C(=O)N[C@H](C(=O)N[C@@H](CC(C)C)C(=O)N[C@@H](CCCCN)C(=O)NCC(=O)N[C@@H](C)C(=O)N[C@H](C(=O)N[C@@H](CCCCN)C(=O)NCC(=O)N[C@@H](C)C(=O)N[C@H](C(=O)N[C@@H](C)C(=O)N[C@H](C(=O)N[C@@H](C)C(=O)N[C@@H](CCCCN)C(=O)N[C@@H](CCSC)C(=O)N[C@H](C(N)=O)C(C)C)C(C)C)[C@@H](C)CC)[C@@H](C)CC)C(C)C)[C@@H](C)O` [IKLSPETKDNLKKVLKGAIKGAIAVAKMV] gave an MIC [1] of 40 µM (≈ 123 µg/mL), an MIC [2] of 20 µM (≈ 61.3 µg/mL) and an MIC [3] of at least 100 µM. It also gave an MIC [4] of 6.25 µM (≈ 19.1 µg/mL), an MIC [5] of 10 µM (≈ 30.6 µg/mL) and an MIC [6] of 6.25 µM (≈ 19.1 µg/mL). It also gave an MIC [7] of 1.6 µM (≈ 4.9 µg/mL), an MIC [8] of 3.1 µM (≈ 9.5 µg/mL) and an MIC [9] of 25 µM (≈ 76.6 µg/mL). For the same compound, the MIC [10] was 20 µM (≈ 61.3 µg/mL), the MIC [11] was 12.5 µM (≈ 38.3 µg/mL) and the MIC [12] was at least 80 µM.

`CC[C@H](C)[C@H](NC(=O)[C@@H](N)CCCCN)C(=O)N[C@@H](CCCCN)C(=O)N[C@H](C(=O)N1CCC[C@H]1C(=O)N[C@@H](Cc1c[nH]c2ccccc12)C(=O)NCC(=O)N[C@@H](CCCCN)C(=O)N[C@H](C(=O)N[C@@H](CCCCN)C(=O)N[C@@H](CC(=O)O)C(=O)N[C@@H](Cc1ccccc1)C(=O)N[C@@H](CC(C)C)C(=O)N[C@H](C(=O)NCC(=O)NCC(=O)N[C@@H](CCSC)C(=O)N[C@@H](CCCCN)C(=O)N[C@@H](C)C(=O)N[C@H](C(=O)O)C(C)C)C(C)C)C(C)C)[C@@H](C)CC` [KIKIPWGKVKDFLVGGMKAV] showed an MIC [13] of 15.4 µM (≈ 34 µg/mL), an MIC [14] of at least 57 µM and an MIC [15] of 2.08 µM (≈ 4.6 µg/mL). The MIC [16] was 1.35 µM (≈ 3 µg/mL).

`CC(C)C[C@H](NC(=O)[C@H](CC(C)C)NC(=O)[C@H](CCCCN)NC(=O)CNC(=O)[C@H](C)NC(=O)[C@@H](NC(=O)[C@H](CCCCN)NC(=O)[C@H](CC(C)C)NC(=O)[C@H](CC(C)C)NC(=O)[C@H](CC(=O)O)NC(=O)[C@@H](NC(=O)[C@@H](NC(=O)[C@@H](NC(=O)CN)C(C)C)C(C)C)[C@@H](C)O)[C@@H](C)O)C(=O)NCC(=O)N[C@@H](CC(N)=O)C(=O)N[C@@H](CC(C)C)C(=O)N[C@H](C(=O)NCC(=O)N[C@@H](CO)C(=O)N[C@@H](CC(C)C)C(=O)N[C@@H](CO)C(=O)NCC(N)=O)C(C)C` [GVVTDLLKTAGKLLGNLVGSLSG] gave an MIC [17] of 25 µM (≈ 55.3 µg/mL), an MIC [18] of at least 100 µM and an MIC [19] of at least 100 µM. The MIC [20] was 25 µM (≈ 55.3 µg/mL), the MIC [21] was 150 µM (≈ 332 µg/mL) and the MIC [5] was 50.5 µM (≈ 112 µg/mL). It also gave an MIC [22] of 12.5 µM (≈ 27.6 µg/mL), an MIC [23] of at least 100 µM and an MIC [24] of 12.5 µM (≈ 27.6 µg/mL). It also gave an MIC [25] of at least 50 µM, an MIC [9] of 100 µM (≈ 221 µg/mL) and an MIC [26] of 100 µM (≈ 221 µg/mL). For the same compound, the MIC [27] was at least 300 µM.

Compound `CC[C@H](C)[C@H](N)C(=O)N[C@@H](CCCCN)C(=O)N[C@@H](CCCCN)C(=O)N[C@H](C(=O)N[C@@H](C)C(=O)N[C@@H](CO)C(=O)N[C@H](C(=O)O)C(C)C)C(C)C` [IKKVASV] has an MIC [28] of at least 1380 µM, an MIC [29] of over 1380 µM and an MIC [30] of at least 1380 µM. The MIC [31] was at least 1380 µM and the MIC [32] was 1380 µM (≈ 1020 µg/mL).
